Earlier results, collected in Sander's compilation of Henry's law constants (doi:10.1021/je0497045).

Assay: Henry solubility constant Hcp at 298.15 K (mol/(m3 Pa))
Conditions: reference: Plyasunova et al. (2004); cited value

SMILES	Henry solubility constant Hcp
CCCS [1-propanethiol]	0.0017
CSSSC [2,3,4-trithiapentane]	0.012
CCC(C)S (centres undefined) [2-butanethiol]	0.0013
CC(C)(C)S [2-methyl-2-propanethiol]	0.00045
S=C=S [carbon disulfide]	0.00055
CC(C)SC(C)C [di-(2-propyl)-sulfide]	0.003
CCSSCC [diethyl disulfide]	0.004
CCSCC [diethyl sulfide]	0.0047
CSC [dimethyl sulfide]	0.0053
CCCSSCCC [dipropyl disulfide]	0.0022
CCCSCCC [dipropyl sulfide]	0.0033
CS [methanethiol]	0.0028

Results, then the compound that gave them:

Henry solubility constant Hcp	SMILES
0.0014	CCCCS [1-butanethiol]
0.00042	CCCCCCCS [1-heptanethiol]
0.00052	CCCCCCS [1-hexanethiol]
0.00087	CCCCCS [1-pentanethiol]
0.00095	CC(C)CCS [3-methyl-1-butanethiol]
0.0023	CCS [ethanethiol]
0.0043	CCCSC [methyl propyl sulfide]
